Test results from patent US10363239B2, “Method for inhibiting growth of cancer cells” (Pain Therapeutics, Inc., priority 2013, dated 2019).
Where two headings read alike, the source gives them in different places.

Assays:
mu opiate receptor (MOR) = experiment: MOR agonist activity using [35S]GTPγS binding assay in striatal membranes; assay type: biochemical
Procedure, shortened: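 Striatal membranes (200 μg) were preincubated 5 min at 30 °C in HEPES pH 7.5 with 100 mM NaCl, 1 mM MgCl2 and 0.5 nM [35S]GTPγS, then 5 min more with 0.1–10 μM compound. Gαo was immunoprecipitated and bound radioactivity counted by scintillation.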

[1] = system: glioblastoma cells (U-87 MG); experiment: [3H]glucose uptake; assay type: cell-based, human; conditions: C0105 0.1-5 nM, other compounds 1 and 5 nM, twice daily for 4 days
Description: (§1) FIG. 1A through FIG. 1M illustrate the effects of various FLNA-binding compounds on glucose uptake in glioblastoma, melanoma, breast and pancreatic cancer cell lines, along with appropriate non-cancerous primary cell controls. Cells were grown in the absence or presence of 0.1-5 nM indicated compounds for 4 days. Following brief washes with PBS, cells were serum-deprived for 4 hours and then incubated in oxygenated Kreb's Ringer containing 0.1 μCi [^3H]glucose for 2 hours under constant oxygenation. The reaction was terminated by removal of the incubation medium, and cells were washed and scraped off to determine the amounts of [^3H]glucose in cells by scintillation spectrometry. […] N=5-6. […] . […] . To determine the effect of Compound C0105 on glucose utilization, the cancer and primary normal cells were plated extremely thinly (10%). Once cells attached, Compound C0105 was added at 0.1, 0.5, 1 or 5 nM in the medium twice daily (6 hours apart) for 4 days. The cells were serum-deprived (glucose deprived) for 2 hours. Cells were then rinsed with 1 ml PBS and glucose uptake was assessed by contacting the cells with [^3H]glucose (0.01 uCi/l ml) in Kreb's Ringer for 2 hours. Cells were then rinsed with 1 ml PBS 3 times, scraped off and their glucose content counted by liquid scintillation spectrophotometry.
(§2) Both glioblastoma and melanoma cells were plated extremely thinly. Once cells attached, Compound C0105 was added at 0.1, 0.5, 1 and 5 nM, whereas the other compounds were present at 1 and 5 nM in the medium twice daily (6 hours apart) for 4 days. The cells were serum-deprived (glucose deprived) for 2 hours. Cells were then rinsed with 1 ml PBS and glucose uptake was assessed by contacting the cells with [3H]glucose (0.01 uCi/l ml) of Kreb's Ringer for 2 hours. Cells were then rinsed with 1 ml PBS 3 times, scraped off and their glucose contents counted by liquid scintillation spectrophotometry.

melanoma cells (A2058) = experiment: [3H]glucose uptake; assay type: cell-based, human; conditions: C0105 0.1-5 nM, other compounds 1 and 5 nM, twice daily for 4 days
Description: as §1, §2

primary lung fibroblasts = experiment: [3H]glucose uptake; assay type: cell-based, human; conditions: C0105 0.1-5 nM, other compounds 1 or 5 nM; 4 days
Description: as §1, §2

[2] = system: non-small cell lung cancer cell lines; experiment: Glucose utilization; assay type: cell-based, human; conditions: data not shown
Description: To determine the effect of Compound C0105 on glucose utilization, the cancer and primary normal cells were plated extremely thinly (10%). Once cells attached, Compound C0105 was added at 0.1, 0.5, 1 or 5 nM in the medium twice daily (6 hours apart) for 4 days. The cells were serum-deprived (glucose deprived) for 2 hours. Cells were then rinsed with 1 ml PBS and glucose uptake was assessed by contacting the cells with [^3H]glucose (0.01 uCi/l ml) in Kreb's Ringer for 2 hours. Cells were then rinsed with 1 ml PBS 3 times, scraped off and their glucose content counted by liquid scintillation spectrophotometry.
. Primary lung fibroblast cells were used as control, non-cancerous cells to illustrate the difference in effects observed (FIG. 1C, FIGS. 1H-1I).

[3] = target: FLNA pentapeptide of SEQ ID NO: 1 (Bn-VAKGL) (Homo sapiens, UniProt P21333); experiment: FITC-NLX-based FLNA screening assay (inhibition of FITC-naloxone binding to Bn-VAKGL on streptavidin plates); conditions: 10 nM FITC-NLX
[4] = FLNA-binding compound 0.01 μM, read-out: Percent Binding Inhibition
[5] = FLNA-binding compound 0.1 μM, read-out: Percent Binding Inhibition
[6] = FLNA-binding compound 1 μM, read-out: Percent Binding Inhibition
[7] = Series C-2, 0.1 μM compound, relative to DAMGO
[8] = Series C-2, 0.1 μM compound, [35S]GTPγS binding to Gαo, striatal membranes
[9] = Series C-2, 1 μM compound + 1 μM β-FNA
[10] = Series C-2, 1 μM compound + β-FNA, relative to DAMGO + BFNA
[11] = Series C-2, 1 μM compound, relative to DAMGO
[12] = Series C-2, 1 μM compound, [35S]GTPγS binding to Gαo, striatal membranes

Compound	Glucose utilization [1]	Glucose utilization (melanoma cells (A2058))	Glucose uptake / glucose content (primary lung fibroblasts)	Glucose utilization [2]	inhibition at 0.01 µM [3, 4] [%]	inhibition at 0.1 µM [3, 5] [%]	inhibition at 1 µM [3, 6] [%]	% DAMGO (0.1 μM) (mu opiate receptor (MOR); [7]) [%]	MOR agonist activity, percent [35S]GTPγS binding at the stated compound concentration (mu opiate receptor (MOR); [8]) [%]	MOR agonist activity, percent [35S]GTPγS binding at the stated compound concentration (mu opiate receptor (MOR); [9]) [%]	% DAMGO + BFNA (mu opiate receptor (MOR); [10]) [%]	% DAMGO (1 μM) (mu opiate receptor (MOR); [11]) [%]	MOR agonist activity, percent [35S]GTPγS binding at the stated compound concentration (mu opiate receptor (MOR); [12]) [%]	further results
COc1c2c(cc3c1C(CC(=O)Cc1ccccc1F)[N+](C)(C)CC3)OCO2 (centres unmarked) [Compound B0055]	decreased the elevated glucose utilization	decreased the elevated glucose utilization	no significant inhibition in glucose content	decreased the elevated glucose utilization										% DAMGO (0.1 μM) (mu opiate receptor (MOR); Series B, 0.1 μM compound, relative to DAMGO): 91.8%; MOR agonist activity, percent [35S]GTPγS binding at the stated compound concentration (mu opiate receptor (MOR); Series B, 0.1 μM compound, [35S]GTPγS binding to Gαo, striatal membranes): 162.1%; MOR agonist activity, percent [35S]GTPγS binding at the stated compound concentration (mu opiate receptor (MOR); Series B, 1 μM compound + 1 μM β-FNA): 117.5%; % DAMGO + BFNA (mu opiate receptor (MOR); Series B, 1 μM compound + β-FNA, relative to DAMGO + BFNA): 446.8%; % DAMGO (1 μM) (mu opiate receptor (MOR); Series B, 1 μM compound, relative to DAMGO): 133.1%; MOR agonist activity, percent [35S]GTPγS binding at the stated compound concentration (mu opiate receptor (MOR); Series B, 1 μM compound, [35S]GTPγS binding to Gαo, striatal membranes): 338.5%
CC1CCC(C(C)C)C(OCC(CN2CC(C)OC(C)C2)NCc2ccccc2)C1 (centres unmarked) [Compound A0033]	decreased the elevated glucose utilization	decreased the elevated glucose utilization	no significant inhibition in glucose content	decreased the elevated glucose utilization	46.4	51.8	56.5							MOR agonist activity ([35S]GTPγS binding), FLNA-Binding Compound as Agonist 0.1 μM (mu opiate receptor (MOR); 0.1 μM compound): 155.8%; % DAMGO (0.1 μM) (mu opiate receptor (MOR); 0.1 μM compound relative to DAMGO): 79.4%; MOR agonist activity ([35S]GTPγS binding), FLNA-Binding Compound as Agonist 1 μM (mu opiate receptor (MOR); 1 μM compound): 254.6%; MOR agonist activity ([35S]GTPγS binding), FLNA-Binding Compound as Agonist 1 μM + BFNA (mu opiate receptor (MOR); 1 μM compound + 1 μM β-funaltrexamine): 118.2%; % DAMGO + BFNA (mu opiate receptor (MOR); 1 μM compound + BFNA relative to DAMGO + BFNA): 159.9%; % DAMGO (1 μM) (mu opiate receptor (MOR); 1 μM compound relative to DAMGO): 92.2%
CC(=O)c1ccc(S(=O)(=O)N2CC(CN(C)C)OC23CCN(C)CC3)cc1 (centres unmarked) [Compound C0108M]	decreased the elevated glucose utilization	decreased the elevated glucose utilization	no significant inhibition in glucose content	decreased the elevated glucose utilization				108.7	205.6	76.9	158.6	104.1	258.5	inhibition at 0.01 µM ([3]; read-out: Percent Binding Inhibition, FLNA-binding compound 0.01 μM): 54.6%; inhibition at 0.1 µM ([3]; read-out: Percent Binding Inhibition, FLNA-binding compound 0.1 μM): 61.4%; inhibition at 1 µM ([3]; read-out: Percent Binding Inhibition, FLNA-binding compound 1 μM): 68.7%
Cc1ccc(S(=O)(=O)N2CCOC23CCN(CC2CC2)CC3)cc1 [Compound C0134M]	decreased the elevated glucose utilization	decreased the elevated glucose utilization	no significant inhibition in glucose content	decreased the elevated glucose utilization	55.7	60.5	61.9	94.6	158.5	46.6	98.1	93.3	207.3	MOR agonist activity, FLNA-Binding Compound as Agonist 0.1 μM (preliminary study) (mu opiate receptor (MOR); 0.1 μM, average of two runs): 150.7%; MOR agonist activity, FLNA-Binding Compound as Agonist 1 μM + βNFA (preliminary study) (mu opiate receptor (MOR); 1 μM + βNFA, average of two runs): 53.2%; MOR agonist activity, FLNA-Binding Compound as Agonist 1 μM (preliminary study) (mu opiate receptor (MOR); 1 μM, average of two runs): 224.0%
O=C1CNC2(CCN(CC3CC3)CC2)N1Cc1ccccc1 [Compound C0124M]	decreased the elevated glucose utilization	decreased the elevated glucose utilization	no significant inhibition in glucose content	decreased the elevated glucose utilization	47.7	52.2	58.7							
